This passage reports IC50, inhibition and Activity results from ChEMBL document CHEMBL5120789, “Aspulvins A-H, Aspulvinone Analogues with SARS-CoV-2 Mpro Inhibitory and Anti-inflammatory Activities from an Endophytic Cladosporium sp” (J Nat Prod, 2022).

Experiment [1] has as its system J774.1. Nature of the experiment: Anti-inflammatory activity against mouse J774A.1 macrophage assessed as reduction in LPS-induced LDH release incubated for 1 hr in presence of nigericin by LDH assay. It counts as functional, cell-based. Conditions: J774.1, 1 h. For orientation: Release of lactate dehydrogenase indicates damage to the cell membrane.
The subject of experiment [2] is J774.1. Nature of the experiment: Anti-inflammatory activity against mouse J774A.1 macrophage assessed as reduction in LPS-induced LDH release at 10 uM incubated for 1 hr in presence of nigericin by LDH assay. The format is functional, cell-based.
For experiment [3], the target named is Replicase polyprotein 1ab (Severe acute respiratory syndrome coronavirus 2) (UniProt P0DTD1). Put plainly: Inhibition of SARS-CoV-2 MPro at 10 uM incubated for 5 mins by FRET assay.
For experiment [4], the system named is J774.1. Nature of the experiment: Anti-inflammatory activity against mouse J774A.1 macrophage assessed as reduction in LPS-induced pyroptosis cells at 0.625 to 2.5 uM incubated for 1 hr in presence of nigericin by PI/Hoechst 33342 staining based inverted fluorescence microscopic analysis. The following applies: dose 0.625-2.5 µM, DDE = dose-dependent effect. It counts as functional, cell-based.

In experiment [5] the test system is J774.1. Nature of the experiment: Anti-inflammatory activity against mouse J774A.1 macrophage assessed as reduction in LPS-induced IL-1beta maturation at 0.625 to 2.5 uM incubated for 1 hr in presence of nigericin by Western blot analysis. The following applies: dose 0.625-2.5 µM. It counts as functional, cell-based. For orientation: A western blot detects proteins with antibodies after separation by electrophoresis.

Experiment [6] relates to J774.1. Put plainly: Anti-inflammatory activity against mouse J774A.1 macrophage assessed as reduction in LPS-induced cleaved casp-1 expression at 0.625 to 2.5 uM incubated for 1 hr in presence of nigericin by Western blot analysis. The format is functional, cell-based. Conditions: dose 0.625-2.5 µM.

SMILES strings stand for the structures. Active and inactive are the calls of the source. No cut-off for these calls is given here.

On to `CC(C)=CCc1cc(/C=C2\OC(=O)C(c3cc(CC=C(C)C)c(O)cc3O)=C2O)ccc1O`, for which the IC50 in experiment [1] came out at 3 µM. The inhibition result in experiment [2] and in experiment [3] was “Active” each time.
Regarding `CC(C)=CCc1cc(C2=C(O)/C(=C/c3ccc4c(c3)C[C@H](C(C)(C)O)O4)OC2=O)c(O)cc1O`, the IC50 in experiment [1] is 4.9 µM. For the same compound, the inhibition result in experiment [2] and in experiment [3] was “Active” each time.
With `CC(C)(O)C(O)Cc1cc(/C=C2\OC(=O)C(c3cc4c(cc3O)OC(C)(C)C(O)C4)=C2O)ccc1O` (stereo not given), in experiment [3], the inhibition entry was “Active”.
Consider `CC(C)=CCc1cc(C2=C(O)/C(=C/c3ccc4c(c3)CC(O)C(C)(C)O4)OC2=O)c(O)cc1O` (stereo not given), for which the IC50 in experiment [1] was 2.8 µM. Further, the inhibition entry in experiment [2] and in experiment [3] was “Active” throughout.
For the compound `CC(C)=CCc1cc(/C=C2\OC(=O)C(c3cc4c(cc3O)OC(C)(C)CC4)=C2O)ccc1O`, the IC50 in experiment [1] is 0.8 µM. Further, the inhibition result in experiment [2] and in experiment [3] was “Active” throughout.
Regarding `CC(C)(O)C1Cc2cc(/C=C3\OC(=O)C(c4cc5c(cc4O)OC(C)(C)C(O)C5)=C3O)ccc2O1` (stereo not given), in experiment [4], the Activity entry was “Dde”. Also, the IC50 in experiment [1] stood at 0.7 µM. In addition, the outcome in experiment [5] and in experiment [6] was Active. Besides, the inhibition entry in experiment [2] and in experiment [3] was “Active” in each case.
Take `CC(C)=CCc1cc(/C=C2\OC(=O)C(c3cc(CCC(C)(C)O)c(O)cc3O)=C2O)ccc1O`: in experiment [1], the IC50 came out at 3.3 µM. In addition, the inhibition result in experiment [2] and in experiment [3] was “Active” in each case.
Regarding `CC(C)=CCc1cc(C2=C(O)/C(=C/c3ccc(O)c(CCC(C)(C)O)c3)OC2=O)c(O)cc1O`, the IC50 in experiment [1] is 3.1 µM. Also, the inhibition entry in experiment [2] and in experiment [3] was “Active” each time.
With `CC(C)=CCc1cc(/C=C2\OC(=O)C(c3cc4c(cc3O)OC(C)(C)C(O)C4)=C2O)ccc1O` (stereo not given), the IC50 in experiment [1] is 4.2 µM. Further, the inhibition entry in experiment [2] and in experiment [3] was “Active” in each case.
Consider `CC1(C)Oc2ccc(/C=C3\OC(=O)C(c4cc5c(cc4O)OC(C)(C)C(O)C5)=C3O)cc2CC1O` (stereo not given), for which the inhibition entry in experiment [3] was “Active”.
Consider `CC(C)=CCc1cc(C2=C(O)/C(=C/c3ccc(O)c(CC(O)C(C)(C)O)c3)OC2=O)c(O)cc1O` (stereo not given), for which the IC50 in experiment [1] is 7.4 µM. The inhibition result in experiment [2] and in experiment [3] was “Active” each time.
Take `CC(C)=CCc1cc(/C=C2\OC(=O)C(c3ccc(O)cc3O)=C2O)ccc1O`: the IC50 in experiment [1] was determined as 2.4 µM. Moreover, the inhibition result in experiment [2] and in experiment [3] was “Active” throughout.

By IC50 is commonly meant the point on the concentration scale where inhibition reaches its midpoint.
